Laboratory results published in paper PMC8147293, “Library of Selenocyanate and Diselenide Derivatives as In Vivo Antichagasic Compounds Targeting Trypanosoma cruzi Mitochondrion” (Pharmaceuticals, 2021).

Key:
[1] = format: in vivo; conditions: BALB/c mice, 20 mg/kg per day for 5 days
Procedure: Finally, biochemical analyses were performed to assess the toxicity associated to the treatment of compound 8. Kidney, heart and liver biochemical markers were measured, including values from uninfected and BZN-treated mice (Table S2). […] The low toxicity allows compound 8 to be tested at higher doses, establishing an improved treatment schedule based on pharmacokinetics in order to reach a total parasite clearance.
(§1) All in vivo assays for the evaluation of compounds in the acute and chronic CD (Scheme 1)—monitoring of parasitemia, immunosuppression, PCR [59, 60], ELISA [56], and clinical analysis [56]—were performed as previously described. PCR was based on the Spliced Leader (SL) intergenic region sequence of T. cruzi (for detailed description, see literature reported previously).

[2] = tested on: Trypanosoma cruzi; test: Anti-T. cruzi IgG (ELISA) and splenomegaly in treated BALB/c mice; format: in vivo; conditions: treated BALB/c mice versus untreated; excluding IgG levels of chronic CD
Procedure: Otherwise, the immune status of the mice was evaluated—through the titer of total anti-T. cruzi IgG and the splenomegaly (Figure S1)—since it is a characteristic linked to the parasite load and the effectiveness ascribed to the potential candidates. […].
as §1
Figure S1. A) Anti-Trypanosoma cruzi immunoglobulin G levels, expressed in absorbance at 492 nm, at different days post-infection (dpi) for each group of mice treated during the acute and chronic phases of Chagas disease: control (untreated), benznidazole (BZN), 8, 10 and 15. Blank and uninfected mice are also […]
included. […] Values are the means of three mice ± standard deviation. (IS) immunosuppression. * Significant differences between untreated and treated mice for α =
0.05. B) Weight percentage of spleens in the chronic Chagas disease for each group of mice treated during the acute and chronic phases of the disease: control (untreated), benznidazole (BZN), 8, 10 and 15. Values are the means of three mice ± standard deviation. In brackets: reduction of splenomegaly in comparison to […]
(§2) (1 picture or pasted object on this page, not shown here)

[3] = tested on: Trypanosoma cruzi; test: Parasitemia reactivation after immunosuppression in BALB/c mice; format: in vivo; conditions: 20 mg/kg per day for 5 days, compared to untreated mice
Procedure: Secondly, the experimental cure was determined using a double checking widely used in in vivo trypanocidal trials. This double checking—based on immunosuppression and PCR (Figure 2B,C, respectively)—was performed to evaluate the treatment effectiveness and the disease extent in both acute and chronic CD at the end of the in vivo timeline. The mice whose parasitemia and PCR remain negative after immunosuppression are considered cured.
Immunosuppression enhances the reactivation of any residual infection, which is proportional to the parasite survival rate.
(§3) Infection was carried out by intraperitoneal inoculation of 5 × 10^5 BTs of T. cruzi per mouse in 0.2 mL PBS [56]. The mice were treated by oral route (~200 µL) once daily for 5 consecutive days. The treatment for mice treated in the acute and chronic phases began when the infection was confirmed (9th day post-infection (dpi)) and was established that the animals had entered the chronic phase (100th dpi), respectively.
(§4) The mice were divided into six groups (n = 3 per group): 0, negative control group (uninfected and untreated mice); I, positive control group (infected and untreated mice); II, BZN group (mice infected and treated with BZN); III, 8 group (mice infected and treated with 8); IV, 10 group (mice infected and treated with 10); V, 15 group (mice infected and treated with 15). The tested compounds and BZN were prepared at 2 mg·mL^−1 in an aqueous suspension vehicle containing 5% (v/v) DMSO and 0.5% (w/v) hydroxypropyl methylcellulose, as previously reported. Therefore, doses of 20 mg·kg^−1 per day were administered for 5 consecutive days, and vehicle only was administered in the negative and positive control groups.
as §1

[4] = tested on: epimastigotes of Trypanosoma cruzi; test: Flow cytometry of nucleic acid levels (acridine orange); format: cell-based; conditions: IC25 concentrations, 72 h
Procedure: The untreated and treated epimastigotes of T. cruzi described in the NMR analysis were collected by centrifugation, washed three times in PBS and stained with […] rhodamine 123 (Rho) (Sigma-Aldrich) or acridine orange (AO) (Sigma-Aldrich) dyes in 0.5 mL PBS for 20 min at 28 °C [63]. Control epimastigotes with a fully depolarized mitochondrion were obtained by incubation for 40 min with 10 mM KCN prior to Rho loading. Non-stained parasites were also included. After elapsed time, epimastigotes were immediately processed and analyzed by flow cytometry as previously reported.
Figure S2. Nucleic acids levels of Trypanosoma cruzi exposed to benznidazole (BZN) and compounds at […]
Inhibition, in percentage, in the nucleic acids levels with respect to untntreated parasites. Values constitute means of three separate determinations ± standard deviation. Significant differences between untreated and treated parasites for α = 0.05.
as §2

[5] = tested on: Trypanosoma cruzi; test: PCR of seven organs/tissues of treated BALB/c mice (Spliced Leader sequence); format: in vivo
Procedure: To assess the efficacy of potential candidates by confirming the absence of infection in the target locations, PCR was carried out at the end of the in vivo timeline (Figure 2C). PCR was positive in seven organs/tissues for the untreated (control) mice groups in both phases, showing the presence of the typical nested amastigotes of the chronic CD.
as §3, §4, §1
Figure 2 (A) Parasitemia profiles of each group of mice infected with Trypanosoma cruzi and treated during the acute Chagas disease over a period of 55 days: control (untreated), benznidazole (BZN), 8, 10 and 15. Treatment days are represented in grey. […]. (B) Parasitemia reactivation by fresh blood in the chronic Chagas disease after the immunosuppression cycles for each group of mice treated during the acute and chronic phases of the disease: control (untreated), benznidazole (BZN), 8, 10, and 15. […]. (C) PCR analysis of seven organs/tissues with the Trypanosoma cruzi Spliced Leader (SL) intergenic region sequence in the chronic Chagas disease for each group of mice treated during the acute and chronic phases of the disease: (a) control (untreated), (b) benznidazole, (c) 8, (d) 10, and (e) 15.

[6] = tested on: Trypanosoma cruzi intracellular amastigotes; test: Screening against intracellular amastigotes in Vero cells (Giemsa counting); format: cell-based; conditions: Trypanosoma cruzi; Table 1; intracellular amastigotes in Vero cells, 72 h; read-out: Activity IC50 Amast.
Procedure: Trypanocidal activity against amastigotes was determined according to the literature reported previously. […]. […] Each compound concentration was tested in triplicate in four separate determinations.

[7] = tested on: Trypanosoma cruzi; test: Parasitemia monitoring in infected BALB/c mice, acute Chagas disease; format: in vivo; conditions: oral 20 mg/kg per day for 5 days from 9th dpi, versus untreated
Procedure: as §3, §4, §1

[8] = tested on: Trypanosoma cruzi bloodstream trypomastigotes (BTs); test: Screening against bloodstream trypomastigotes (resazurin); format: cell-based; conditions: Trypanosoma cruzi; Table 1; bloodstream trypomastigotes, 24 h treatment + 4 h resazurin; read-out: Activity IC50 Trypomast.
Procedure: 2 × 10^6 Bloodstream trypomastigotes (BTs), obtained by cardiac puncture from infected BALB/c mice as previously described, were treated by adding the tested compounds at a concentration range from 50 to 0.1 µM in 96-well microplates (200 µL·well^−1) at 37 °C. After 24 h of treatment, resazurin sodium salt (Sigma-Aldrich) was added to be incubated for further 4 h. Finally, trypanocidal activity was determined following the same procedure as described to assess the trypanocidal activity in the epimastigotes. Each compound concentration was tested in triplicate in three independent experiments.

[9] = tested on: Mammalian Vero cells; test: Cytotoxicity test on Vero cells (resazurin); format: cell-based; conditions: Chlorocebus sabaeus; Table 1; Vero cells, 48 h + 24 h resazurin; read-out: Toxicity IC50 Vero Cell
Procedure: Mammalian Vero cells (EACC No. 84113001), cultured as previously reported, were used to determine the cytotoxicity of the tested compounds [56]. In short, 1.25 × 10^4 Vero cells·mL^−1 were treated by adding the compounds at a concentration range from 400 to 1 µM in 96-well microplates (200 µL·well^−1) at 37 °C for 48 h. Subsequently, resazurin sodium salt (Sigma-Aldrich) was added to be incubated for further 24 h. Finally, cell viability was determined following the same procedure as described to assess the trypanocidal activity in the epimastigotes. Each compound concentration was tested in triplicate in three independent experiments.

## O=C(Cn1ccnc1[N+](=O)[O-])NCc1ccccc1 [BZN, benznidazole, reference compound]
[1]
  kidney, heart and liver biochemical markers: disturbed 2 days after treatment
[2]
  total anti-T. cruzi IgG levels and splenomegaly: significant reduction
[3]; mice treated in acute CD
  reactivation of infection after immunosuppression: 81%
[3]; mice treated in chronic CD
  reactivation of infection after immunosuppression: 68%
[4]
  reduction in nucleic acid levels with respect to untreated parasites: 22.4%
[5]; mice treated in acute CD
  negative PCR (parasite-free locations): 2/7
[5]; mice treated in chronic CD
  negative PCR (parasite-free locations): 3/7
[6]
  IC50: 8.3 ± 0.7 µM
[7]
  parasitemia levels (counting BTs) during the acute CD: remarkable parasitemia reduction
[8]
  IC50: 12.4 ± 1.1 µM
[9]
  IC50: 80.4 ± 7.1 µM
